{"source": "patent US11672786B2", "about": "“Methods of treating diseases associated with repeat instability” (The Hospital for Sick Children, priority 2016, dated 2023)", "key": {"[1]": {"tested_on": "single G-T mismatch", "test": "in vitro repair assay by HeLa cell extracts, G-T mismatch", "type": "biochemical, human", "description": "Panel A of […] is a schematic of the in vitro repair assay. Starting DNAs and repair products released the repeat-containing fragment, which is resolved on PAGE and assessed on a molar level by Southern blotting and densitometry. Repair of different DNA substrates containing a long (CAG)20 slip-out (Panel B of FIG. 3) long (CTG)20 slip-out (Panel C of FIG. 3), a single CAG slip-out (Panel D of FIG. 3) or a single G-T mismatch (Panel E of FIG. 3), in the absence or in the presence of NA. Slipped-DNA substrates were prepared from hybrids of (CAG)50●(CTG)30, (CAG)30●(CTG)50 or of (CAG)50●(CTG)49. Repair of the G-T mismatch reconstitutes a HindIII restriction site, as shown schematically. Graphs show percentage repair efficiencies to repaired product relative to all repeat-containing fragments in the lane, values are normalized to the NA-free efficiency. […]\nTo determine how the binding of NA to slipped DNA structures affects repair, a series of circular slipped heteroduplex substrates was made with an excess of repeats with a nick located either 5′ or 3′ of the slip-out (FIG. 3). […] All these substrates were processed in […] by HeLa extracts and then were assessed for repair. Repair products were analyzed by Southern blotting, probed for the repeat-containing fragment, and compared with starting material, which permitted quantitative assessment of repair efficiency at a molar level. […]"}, "[2]": {"tested_on": "CASK, ATXN8, and Mfd15 loci in HT1080-(CAG)850 cells", "test": "repeat-tract lengths of non-expanded loci in HT1080-(CAG)850 cells", "type": "cell-based, human", "conditions": "30 days incubation with or without NA", "description": "FIG. 5 are results from experiments showing that NA induces CAG contractions in HT1080-(CAG)850 cells, independent of proliferation, dependent upon rCAG transcription. […] Panel B of FIG. 5 are histograms showing repeat length distributions in HT1080-(CAG)850 cells. Frequency distribution of unstable alleles is shown by gray bars. Frequency of stable alleles is shown by black bars. To facilitate comparisons, a dashed line indicates the unchanged CAG size. Allele lengths are grouped in bins spanning 50 repeats. […] More than 50 alleles were sized for each group. P-value was calculated by chi-square test (Table 2). […] P-value was calculated by Student's t-test. […] Repeat length distributions and average repeat size changes are shown. […] Quantitative reverse transcription (RT)-PCR was performed using TaqMan Gene Expression assays. […]\nGenomic DNA was extracted from HT1080-(CAG)850 clones and HD primary fibroblasts using the Gentra Puregene Cell Kit (Qiagen, Valencia, Calif.). […] At least 50 alleles were analyzed for each of the three experiments (more than 150 alleles for a total study). […] For the histograms in FIGS. 4D, 4E, 10, 11, 5B, 5D, 5E, 14 and 15B, the Y-axis, “% of repeat population” was calculated by determining the proportion of >50 individual small-pool PCR reactions across the CAG repeat tract, that harbored a certain size of repeat product with a certain length. […]"}, "[3]": {"tested_on": "r(CAG)9", "conditions": "r(CAG)9 immobilization 524 RU; cited from earlier work"}}, "data": [{"substance": "naphthyridine-azaquinolone", "values": [{"measurement": "effect on G-T mismatch repair", "setting": "[1]", "result": "no effect"}, {"measurement": "length variation at CASK, ATXN8, and Mfd15 loci", "setting": "[2]", "result": "Length variation was not observed"}, {"measurement": "changes in the SPR intensity on NA binding", "setting": "[3]", "result": 8, "unit": "RU"}]}]}
